Each structure is given as a SMILES string.

For one data set, the target named is T1, CETP (Homo sapiens, UniProt P11597).
T1 sequence (P11597 18-493): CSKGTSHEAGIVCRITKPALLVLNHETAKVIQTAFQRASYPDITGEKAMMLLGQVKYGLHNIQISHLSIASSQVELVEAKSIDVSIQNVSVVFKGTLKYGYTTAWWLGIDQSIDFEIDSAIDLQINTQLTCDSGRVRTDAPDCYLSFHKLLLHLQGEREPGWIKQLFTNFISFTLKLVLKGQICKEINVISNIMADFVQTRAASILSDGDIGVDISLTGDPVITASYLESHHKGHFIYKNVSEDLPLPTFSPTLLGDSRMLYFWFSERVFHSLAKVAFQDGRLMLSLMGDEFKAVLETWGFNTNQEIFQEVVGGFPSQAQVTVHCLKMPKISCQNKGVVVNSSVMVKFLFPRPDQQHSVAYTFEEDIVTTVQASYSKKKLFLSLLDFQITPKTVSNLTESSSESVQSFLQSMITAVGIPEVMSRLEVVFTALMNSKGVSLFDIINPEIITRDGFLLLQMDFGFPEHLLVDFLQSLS
In words: inhibition of CETP. The data set is classed as biochemical. The text has this: (§1) The reported procedures for the inhibitory activities of ACAT (Tomoda, H.; Nishida, H.; Masuma, R.; Cao, J.; Okuda, S.; Omura, S. J. Antibiot. 1991, 44, 136-143), CETP (Tomoda, H.; Tabata, N.; Masuma, R.; Si, S.-Y.; Omura, S. J. Antibiot. 1998, 51, 618-623; D. H. Hua et al. Tetrahedron 2003, 59, 4795-4803), L1210 tumor cells (Perchellet, E. M.; Ladesich, J. B.; Magill, M. J.; Chen, Y.; Hua, D. H.; Perchellet, J. P. Anti-Cancer Drugs 1999, 10, 489-504), and APP C99-induced cell death (Jin, L.-W.; Hua, D. H.; Shie, F.-S.; Maezawa, I.; Sopher, B.; Martin, G. M. J. Mol. Neurosci. 2002, 19, 57-61) were followed.
ACAT mediates the esterification of intracellular cholesterol and is believed to play a key role in lipoprotein metabolism and atherogenesis (for a review: Suckling, K. E.; Stange, E. F. J. Lipid Res. 1985, 26, 647-671). […] The inhibition of CETP with these three compounds was then studied. CETP, a hydrophobic neutral glycoprotein, mediates the transfer of cholesteryl ester from high-density lipoprotein to low-density lipoprotein (For a review: Tall, A. R. J. Lipid Res. 1993, 34, 1255-1274). […] The N-(p-nitrophenyl)aspartamide portion of 104 was attached in order to study whether 104 was a substrate of […] (For a review: VIIIa, P.; Kaufmann, S. H.; Earnshaw, W. C. Trends Biochem. Sci. 1997, 22, 388-393). […] Compound 105 is cytotoxic to L1210 tumor cells, with IC50=30 μM. Aggarwal et al., J. Chem. Soc., Perkin Trans I (1999) 3315-3321 is incorporated by reference to the extent not inconsistent with the disclosure herewith.

A further data set relates to ACAT. Description: inhibition of ACAT. Type of data set: biochemical.
The target of data set [1] is T2, Human aldose reductase (AR) (Homo sapiens, UniProt P15121).
T2 construct: made in house; host or cells: E. coli
In words: human AR inhibition assay (enzyme assay, NADPH absorption at 340 nm). The data set is classed as biochemical. To be noted: Table 4. On the procedure: Human aldose reductase (AR) was obtained from overexpression of the human AR gene in an E coli system and was purified by column chromatography using a talon metal affinity column and eluted with a gradient mixture of Tris, NaCl buffer and imidazole solution. The human AR inhibition assay was conducted as follows. In a sample cuvette, 25 mM of D-xylose (75 mg/mL) and 0.15 mM of reduced nicotinamide adenine dinucleotide phosphate (NADPH) (4 mg/mL), and various amount of the inhibitor [in PBS (phosphate buffer saline) solution; the concentration of the inhibitor was determined using UV spectroscopy based on εmax at λmax of the drug] in 700 uL of PBS (a solution made of 1.44 g of Na2HPO4, 0.24 g KH2PO4, 0.2 g KCl, and 8 g NaCl in 1 L of distilled water) buffer (pH=6.1) solution and 200 uL of the AR enzyme (a final volume of 1 mL was obtained). The intensity of absorption of NADPH (λmax=340 nm) was measured. When xylose is reduced to xylitol, NADPH is converted into NADP and the absorption at 340 nm decreases. When AR is inhibited by the drug, the absorption at 340 nm of NADPH remains unchanged. Each assay was repeated three times and an average IC50 value was obtained.

Data set [2] relates to N/N 1003 lens epithelial cells. In words: tissue culture assay: galactitol formation from galactose in lens epithelial cells (GC/MS). The data set is classed as cell-based. As to conditions: Epithelial cell; 10 uM inhibitor; 40 mM galactose media, lens epithelial cells, 48 hours; number of trials in parenthesis. As for the experimental part:
The activity of the drugs is tested in various ways, including tissue culture assays and assays testing aldose reductase inhibition. For the tissue culture assay, a lens epithelial cell line is grown in galactose with or without the drug. Cells are tested for polyol accumulation by GC/mass spectrometry. Levels of PKC are tested in homogenized cell pellets or in samples of lens, retina or sciatic nerves from treated patients. Tissue is homogenized and tested for PKCγ levels using Western blots. These procedures are described in more detail below.
The ability of the drugs to inhibit galactitol formation from galactose was also studied in N/N 1003 lens epithelial cells. Two sets of lens cells were grown in media with […] 40 mM galactose. Various concentrations of inhibitors were added initially and the cells were grown for 48 hours. The cells were lysed and galactose and galactitol were extracted out and the concentrations were determined using gas chromatography and mass spectrometry by silylating the crude extract with excess of trimethylsilyl chloride, trimethylsilyl imidazole and pyridine at 70° C. for 1 h.
40 mM galactose media was supplemented with 10 uM inhibitor and fed to lens epithelial cells for 48 hours.

The next data set concerns MC65 cells. Description: protection from APP C99-induced cell death in MC65 cells. Type of data set: cell-based. To be noted: for EC50: MC65 cells in the absence of tetracycline; for protection of MC65 cells from death (in words): MC65 cells conditionally expressing partial APP fusion protein, absence of tetracycline.
Description: as §1, with “followed. […]” for “followed.”

For `CC(CO)[C@H]1CC[C@@H]2[C@H](C1)Oc1cc(CC(=O)OCc3ccccc3)oc(=O)c1[C@H]2O` (mixture of isomers) [Compound 103, Benzyl (5aS,7S,9aS,10S)-{10-hydroxy-7-[(1R) and (1S)-2-hydroxy-1-methylethyl]-1H,7H-5a,6,8,9-tetrahydro-1-oxopyrano[4,3-b][1]benzopyran-3-yl}acetate], the IC50 – broadly, the concentration that inhibits the measured activity by half – against CETP was found to be 75 µM; with ACAT it was 150 µM.
Take `CC(CO)[C@H]1CCC2=Cc3c(cc(CC(=O)O)oc3=O)O[C@H]2C1` (stereo partly drawn) [Compound 7]: the “IC50 values obtained from the enzyme assay (aldose reductase)” value in data set [1] is on record as “No significant inhibition detected”.
As to `O=C(O)C(O)Cc1cc2c(c(=O)o1)C=C1CCCCC1O2` (stereo not drawn) [Compound 3, 2-Hydroxy-3-{1H,7H-5a,6,8,9-tetrahydro-1-oxopyrano[4,3-b][1]benzopyran-3-yl}-propanoic acid], the IC50 in data set [1] (read-out: IC50 values obtained from the enzyme assay (aldose reductase)) is over 500 µM. In addition, in data set [2], the inhibition (usually the relative decrease from the control value, in per cent) at 10 µM is under 10%.
For `O=C(O)CCc1cc2c(c(=O)o1)C=C1CCCCC1O2` (stereo not drawn) [Compound 5a], the water solubility entry in “water solubility” was “water soluble”.
In the case of `CC(CO)[C@H]1CCC2=Cc3c(cc(CC(=O)OCc4ccccc4)oc3=O)O[C@H]2C1` (mixture of isomers) [Compound 102, Benzyl (5aS,7S)-{7-[(1R)- and (1S)-2-hydroxy-1-methylethyl]-1H,7H-5a,6,8,9-tetrahydro-1-oxopyrano[4,3-b][1]benzopyran-3-yl}acetate], the IC50 at CETP was over 100 µM; in the data set with ACAT, 310 µM.
For the molecule `C=C(C)[C@H]1CCC2=Cc3c(cc(CC(=O)O)oc3=O)O[C@H]2C1` [Compound 6, {(5aS,7S)-7-Isopropenyl-1H,7H-5a,6,8,9-tetrahydro-1-oxopyrano[4,3-b][1]-benzopyran-3-yl}acetic acid], in data set [1], the “IC50 values obtained from the enzyme assay (aldose reductase)” value is listed as “No significant inhibition detected”.
On to `C=C(C)[C@H]1CCC2=Cc3c(cc(C)oc3=O)O[C@H]2C1` [Compound 108], for which the EC50 (usually the concentration needed to bring the measured effect to its halfway point) in the data set on MC65 cells is over 10 µM. This molecule came in with an IC50 in the data set on ACAT of 167 µM.
On to `Cc1cc2c(c(=O)o1)C=C1CC[C@H](C(C)CNc3ncnc4[nH]cnc34)C[C@@H]1O2` (mixture of isomers) [Compound 107, (5aS,7S)-7-[(1R) and (1S)-2-(N10-Adenyl)-1-methylethyl]-3-methyl-1H,7H-5a,6,8,9-tetrahydro-1-oxopyrano[4,3-b][1]benzopyran], for which, in the data set on MC65 cells, the “protection of MC65 cells from death (in words)” value (“protection of MC65 cells” for short) is “inactive” and the EC50 was over 3 µM.
Regarding `Cc1cc2c(c(=O)o1)C=C1CC[C@H](C(C)Cn3cnc(N)c4ncnc3-4)C[C@@H]1O2` (mixture of isomers) [Compound 106, (5aS,7S)-7-[(1R) and (1S)-2-(N-3-adenyl)-1-methylethyl]-3-methyl-1H,7H-5a,6,8,9-tetrahydro-1-oxopyrano[4,3-b][1]benzopyran], the IC50 at CETP is over 250 µM; in the data set on ACAT, over 500 µM. Besides, in the data set with MC65 cells, the “protection of MC65 cells” value is “protected from death”. In the data set on MC65 cells, this molecule gave an EC50 of 0.15 µM.
For `C=C(C)[C@H]1CCC2=Cc3c(cc(CC(=O)OCc4ccccc4)oc3=O)O[C@H]2C1` [Compound 101, Benzyl (5aS,7S)-{7-isopropenyl-1H,7H-5a,6,8,9-tetrahydro-1-oxopyrano[4,3-b][1]benzopyran-3-yl}acetate], the IC50 against CETP is over 100 µM; with ACAT, 157 µM.
Turning to `Nc1ncnc2nc[nH]c12` [Adenine, reference compound], in the data set on MC65 cells, the “protection of MC65 cells” value is “no activity” and the EC50 was over 10 µM.

(Values after patent US7935726B1, “Tricyclic pyrones” (Kansas State University Research Foundation, priority 1999, dated 2011).)
